The target of series [1] is Beclin 1-associated autophagy-related key regulator (Homo sapiens) (UniProt Q6ZNE5). In words: Induction of stabilization of ATG14L in human A549 cells assessed as increase in melting temperature at 100 uM incubated for 24 hrs by CETSA method. It counts as cell-based.
In series [2] the test system is HEK293T. Description: Inhibition of C-terminal Nano-luc tagged ATG14L/C-terminal Halo-tagged Beclin 1 (unknown origin) PPI tranfected with HEK293T cells using […] at 100 uM incubated for 24 hrs by […] assay relative to control. It counts as cell-based. Particulars: Homo sapiens, values are per cent of control.
Series [3] can be described thus: Kinetic aqueous solubility of compound in PBS at pH 7.4 by absorbance based analysis. It counts as physicochemical. Particulars: read-out: Kinetic_solubility.
In series [4] the test system is HeLa. Description: Inhibition of autophagy in human HeLa cells expressing eGFP-LC3 assessed as increase in LC3-II at 100 uM preincubated for 20 hrs followed by chloroquine addition and measured after 4 hrs by Hoechst 33342 staining based automated fluorescence microscopy analysis. It counts as functional, cell-based. Particulars: time 24.0 hrs.
The test system of series [5] is A549. In words: Inhibition of autophagy in human A549 cells assessed as increase in fluorescence at 100 nM preincubated with DQ-BSA for 1 hr followed by compound addition and measured after 4 hrs by Hoechst 33342 staining based automated fluorescence microscopy analysis. The class given is functional, cell-based.
Series [6] can be described thus: Inhibition of C-terminal Nano-luc tagged ATG14L/C-terminal Halo-tagged Beclin 1 (unknown origin) PPI tranfected with HEK293T cells using […] incubated for 24 hrs by […] assay. It counts as cell-based, Homo sapiens.
Series [7] deals with HeLa. In words: Cytotoxicity against human HeLa cells expressing eGFP-LC3 at 100 uM. It counts as functional, cell-based.
Series [8] is described as follows: Inhibition of C-terminal Nano-luc tagged UVRAG/C-terminal Halo-tagged Beclin 1 (unknown origin) PPI tranfected with HEK293T cells using […] incubated for 24 hrs by […] assay. It counts as cell-based, Homo sapiens.
Series [9] concerns HEK293T. Description: Inhibition of C-terminal Nano-luc tagged UVRAG/C-terminal Halo-tagged Beclin 1 (unknown origin) PPI tranfected with HEK293T cells using […] at 100 uM incubated for 24 hrs by […] assay relative to control. It counts as cell-based. Particulars: Homo sapiens, values are per cent of control.
A short description of series [10]: Selectivity ratio of inhibition of C-terminal Nano-luc tagged UVRAG/C-terminal Halo-tagged Beclin 1 (unknown origin) PPI tranfected with HEK293T cells to inhibition of C-terminal Nano-luc tagged ATG14L/C-terminal Halo-tagged Beclin 1 (unknown origin) PPI tranfected with HEK293T cells.
The test system of series [11] is A549. Description: Inhibition of autophagy in human A549 cells assessed as increase in fluorescence at 100 uM preincubated with DQ-BSA for 1 hr followed by compound addition and measured after 4 hrs by Hoechst 33342 staining based automated fluorescence microscopy analysis. It counts as functional, cell-based.
The test system of series [12] is A549. Description: Inhibition of autophagy in human A549 cells assessed as increase in fluorescence at 12.5 uM preincubated with DQ-BSA for 1 hr followed by compound addition and measured after 4 hrs by Hoechst 33342 staining based automated fluorescence microscopy analysis. It counts as functional, cell-based.
For series [13], the system named is A549. Description: Inhibition of autophagy in human A549 cells assessed as increase in fluorescence at 100 uM measured after 4 hrs by Hoechst 33342 staining based […] microscopy analysis. The class given is functional, cell-based.
The test system of series [14] is HeLa. Description: Inhibition of autophagy in human HeLa cells expressing eGFP-LC3 assessed as decrease in GFP puncta/cell at 100 uM preincubated for 20 hrs followed by chloroquine addition and measured after 4 hrs by Hoechst 33342 staining based automated fluorescence microscopy analysis. It counts as functional. Particulars: time 24.0 hrs.
For series [15], the system named is A549. Description: Inhibition of autophagy in human A549 cells assessed as increase in fluorescence at 20 uM preincubated with DQ-BSA for 1 hr followed by compound addition and measured after 4 hrs by Hoechst 33342 staining based automated fluorescence microscopy analysis. It counts as functional, cell-based.

Each structure is given as a SMILES string. Calls of active or inactive are those of the source. The rule behind the calls is not given here.

As usually defined, the IC50 is the concentration at which inhibition is half-maximal.

Sequence of Beclin 1-associated autophagy-related key regulator (Homo sapiens) (Q6ZNE5 whole entry): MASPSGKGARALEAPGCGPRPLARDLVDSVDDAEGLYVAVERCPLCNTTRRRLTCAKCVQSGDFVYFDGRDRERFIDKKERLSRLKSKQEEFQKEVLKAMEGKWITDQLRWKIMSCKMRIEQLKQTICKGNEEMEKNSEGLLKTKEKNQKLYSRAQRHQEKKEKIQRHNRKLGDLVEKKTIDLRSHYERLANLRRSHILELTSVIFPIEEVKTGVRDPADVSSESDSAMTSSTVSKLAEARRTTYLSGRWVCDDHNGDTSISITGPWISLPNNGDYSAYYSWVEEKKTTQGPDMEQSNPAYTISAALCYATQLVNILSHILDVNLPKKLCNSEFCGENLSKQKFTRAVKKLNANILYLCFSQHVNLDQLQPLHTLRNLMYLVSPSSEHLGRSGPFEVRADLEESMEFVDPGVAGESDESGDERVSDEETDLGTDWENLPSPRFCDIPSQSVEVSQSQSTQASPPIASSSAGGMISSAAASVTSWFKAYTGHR

In the case of `CCN1C(=O)COc2ccc(S(=O)(=O)Nc3cccc(C)c3C)cc21`, the outcome in [1] was inactive. Also, in series [2], the residual binding, % of control was found to be 95.9%. Also, in series [3], the solubility kinetic was over 100 µM. Further, the inhibition entry in series [4] was “Active”.

Consider `CO/C1=C\C(C)=C\[C@@H](C)[C@@H](O)[C@@H](C)C/C(C)=C/C=C/[C@H](OC)[C@@H]([C@@H](C)[C@@H](O)[C@H](C)[C@@]2(O)C[C@@H](O)[C@H](C)[C@@H](C(C)C)O2)OC1=O`, for which, in series [5], the inhibition result was “inactive”.

As to `CCCN1C(=O)COc2ccc(-c3cccc(C)c3C)cc21`, the IC50 in series [6] is 32.3 µM; in [8] it was 42.2 µM. Besides, in series [7], the outcome was Active. The residual binding, % of control in [2] stood at 63%; in series [9], 77.7%. Besides, the solubility kinetic in [3] is over 100 µM. Besides, the Selectivity ratio in [10] turned out to be 1.23. The inhibition entry in series [11] is “Active”.

Consider `Nc1ncc(-c2ccnc(Nc3ccncc3)n2)c(CC2CC2)n1`, for which, in [12], the inhibition entry is “inactive”.

For the molecule `CCCN1C(=O)COc2ccc(S(=O)(=O)Nc3cccc(C)c3C)cc21`, the result in series [1] was Active. Further, the IC50 in series [6] amounted to 56.3 µM. The molecule also gave a residual binding, % of control in series [2] of 72.3%. Further, the inhibition entry in series [13] and in [4] was “Active” in each case. Further, in [3], the solubility kinetic is over 100 µM. The values for the inhibition result in series [11] and in series [14] were “Active; Compound Showed Normal Functioning Of Lysosomes And Endosomal Trafficking” and “Active; Compared With Chloroquine And Compound 1E”, respectively.

For the molecule `CCN(CC)CCCC(C)Nc1ccnc2cc(Cl)ccc12` (centres undefined), in [15], the inhibition result was “inactive”.

Consider `C[C@@H]1COCCN1c1cc(=O)n2c(n1)N(Cc1cncc(Cl)c1)[C@H](C(F)(F)F)CC2`, for which the inhibition entry in [12] is “inactive”.

For the origin of these results see ChEMBL document CHEMBL6096696, “Structure-Activity Relationship Studies of an Autophagy Inhibitor That Targets the ATG14L-Beclin1 Protein-Protein Interaction Reveal Modifications That Improve Potency and Solubility and Maintain Selectivity” (J Med Chem, 2025).
